{"source": "paper PMC9011347", "about": "“Small-Molecule Inhibitors Targeting Lipolysis in Human Adipocytes” (Journal of the American Chemical Society, 2022)", "tested_on": "lipoprotein lipase (LPL) and hepatic lipase (HL)", "test": "Heparin-releasable TAG hydrolase activity in post-heparin plasma", "type": "biochemical", "details": "NG-497 100 µM, radiolabeled triolein", "method": "Fig. S3: Investigation of off-target effects of NG-497 on structurally and functionally related lipid hydrolases. (a) PNPLA1-dependent formation of acylceramides was monitored in a cell-based assay in HEK293T cells. Experiments were performed in the presence or absence of NG-497 (40 µM) and the non-selective lipase inhibitor Orlistat (40 µM). Orlistat, but not NG-497, inhibited PNPLA1/CGI-58-dependent ω-O-acylceramide formation. (b-h) Enzymes were overexpressed in Expi293 cells and cell lysates were used as source of enzymatic activity. […] Experiments were performed in the presence or absence of NG-497 (100 µM) and the formation of reaction products was monitored. […]\nData were calculated relative to the basal activity detected in LacZ-transfected controls. […]\nLPL activity was inhibited using an anti-LPL antibody. All data are presented as mean ± S.D. Statistical significance was determined via ANOVA followed by Bonferroni post hoc test ( ***, p < 0.001). […]\nReleased free fatty acids were quantified via NEFA C kit (Fujifilm Wako Chemicals, Neuss, Germany) and release of p-nitrophenol was measured at 405 nm. […] Cellular ω-O-acylceramide formation was monitored using [1-14C]linoleic acid as tracer. […] The activity of purified human pancreatic lipase (MilliporeSigma #SRE0028) was determined as previously described7 in the presence or absence of NG-497 (100µM) or Orlistat (20 µM). […]"}
{"smiles": "CCOc1ccc(-c2cc(OC)cc(C(=O)OC(C)C)n2)cc1", "note": "[NG-497]", "values": [{"measurement": "inhibition of heparin-releasable TAG hydrolase activity in human serum", "result": "did not observe inhibition"}]}
